# Measured values: US11612601B1, “Targeting epidermal growth factor to treat vascular calcification” (THE FLORIDA INTERNATIONAL UNIVERSITY BOARD OF TRUSTEES, priority 2022, dated 2023)
# System: Osteoblasts (hFOB 1.19)
# Assay: Matrix vesicles from osteoblast cultures: CAV1 and TNAP activity
# Format: cell-based, human
# Conditions: OS + 2.5 μM
# Experimental: Osteoblasts (from human fetus, hFOB 1.19, ATCC, CRL-11372) were cultured and grown in DMEM containing 10% v/v bovine calf serum and 1% v/v penicillin-streptomycin. Osteoblasts (passage 4-6) were harvested using 0.25% trypsin-EDTA solution (Caisson Labs, TRL01), seeded with a density of 5,200 cell.cm^−2, and incubated for 24 hours at 37° C. and 5% CO2 with controlled humidity. The cells were treated in three groups of control, OS, and OS supplemented with tyrphostin AG1478 (2.5 μM) for 21 days and media changed every three days. […] Similar to the VSMC experiments, EV-free media were added to the cultures on days 6, 13, and 20, and collected 24 hours later on days 7, 14, and 21. Collected media were centrifuged at 1,000×g for 5 min to remove cell debris. EVs were isolated using the ultracentrifugation at 100,000×g for 1 hour.
# For EV TNAP activity measurement, after ultracentrifugation at 100,000×g for 1 hour, the pellets were re-suspended in 120 μL buffer assay. […]
# To quantify the total protein, the membranes were stained using 2% w/v Ponceau stain (Alfa Aesar, AAJ6074409) for 20 min, followed by one wash with 5% acetic acid and milliQ water for 5 min. After imaging, the intensity of each lane was measured in ImageJ for total protein normalization. […] The protein bands were visualized with Odyssey CLx scanner (Li-Cor), and quantified using Image Studio Lite software (Li-Cor).
compound,measurement,setting,value
"COc1cc2ncnc(Nc3cccc(Cl)c3)c2cc1OC [AG1478, tyrphostin AG1478]",CAV1 protein on matrix vesicles released by osteoblasts,"compared to control, days 14 and 21",lower levels
same,TNAP activity of matrix vesicles released by osteoblasts,"days 7, 14, 21",significantly increased
